The values that follow are results of earlier work, collected in patent US7531581B2, “Method and use of acidified modified polymers to bind biocides in paints” (I-Tech AB, priority 2005, dated 2009).

The subject of this series is barnacles. The conditions noted are these: serotonin antagonists and dopamine agonists.

As to `CC(C)C[C@H]1C(=O)N2CCC[C@H]2[C@]2(O)O[C@](NC(=O)[C@@H]3C=C4c5cccc6[nH]c(Br)c(c56)C[C@H]4N(C)C3)(C(C)C)C(=O)N12` [(+)-Bromocriptine], the “effect on attachment of barnacles” value is given as “inhibitory properties”.

Turning to `CCCN1CCc2cccc3c2[C@H]1Cc1ccc(O)c(O)c1-3` [R (−)-NPA], the “effect on attachment of barnacles” value is listed as “inhibitory properties”. Take `O=C(c1ccc(F)cc1)C1CCN(CCn2c(=O)[nH]c3ccccc3c2=O)CC1` [Ketanserin]: the “effect on attachment of barnacles” value is “inhibitory properties”.
